Paper PMC3970082 (FEBS Open Bio, 2014)

Target: T1, 5-aminopentaneamide amide hydrolase (Pseudomonas sp. TPU-A5, UniProt W6JNP2)
T1 sequence (W6JNP2 1-504): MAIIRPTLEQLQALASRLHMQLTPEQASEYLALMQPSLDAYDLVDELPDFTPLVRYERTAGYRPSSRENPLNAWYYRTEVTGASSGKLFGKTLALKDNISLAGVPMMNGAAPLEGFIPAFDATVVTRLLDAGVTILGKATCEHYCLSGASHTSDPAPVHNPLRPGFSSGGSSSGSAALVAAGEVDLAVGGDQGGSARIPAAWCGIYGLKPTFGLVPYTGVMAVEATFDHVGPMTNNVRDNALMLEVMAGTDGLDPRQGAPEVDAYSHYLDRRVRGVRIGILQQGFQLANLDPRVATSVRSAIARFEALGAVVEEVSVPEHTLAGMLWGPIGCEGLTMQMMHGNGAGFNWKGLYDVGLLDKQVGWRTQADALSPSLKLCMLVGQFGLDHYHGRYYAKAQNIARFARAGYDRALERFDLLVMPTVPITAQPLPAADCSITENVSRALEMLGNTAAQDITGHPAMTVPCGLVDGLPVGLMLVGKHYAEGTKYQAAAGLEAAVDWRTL
Experiment: ammonia liberation
Assay type: biochemical
Settings: room temperature; purified fractions of native enzyme

CCCCC(N)=O [valeramide]
ammonia liberation (indophenol reaction): assayed at room temperature by measuring the ammonia liberated from valeramide degradation
